{"source": "patent US20150018237A1", "about": "“MEANS AND METHODS FOR ASSESSING BONE DISORDERS” (BASF SE, priority 2012, published 2015)", "key": {"rats [1]": {"test_system": "rats", "conditions": "rat, in vivo", "procedure": "(§1) A group of each 5 male and female rats was dosed once daily with the indicated compounds (see Table 10, below for compounds, applied doses and administeration details) over 28 days.\n(§2) Each dose group in the studies consisted of five rats per sex. Additional groups of each 5 male and female animals served as controls. Before starting the treatment period, animals, which were 62-64 days old when supplied, were acclimatized to the housing and environmental conditions for 7 days. All animals of the animal population were kept under the same constant temperature (20-24±3° C.) and the same constant humidity (30-70%). The animals of the animal population were fed ad libitum. The food to be used was essentially free of chemical or microbial contaminants. Drinking water was also offered ad libitum. Accordingly, the water was free of chemical and microbial contaminants as laid down in the European Drinking Water Directive 98/83/EG. The illumination period was 12 hours light followed by 12 hours darkness (12 hours light, from 6:00 to 18:00, and 12 hours darkness, from 18:00 to 6:00). The studies were performed in an AAALAC-approved laboratory in accordance with the German Animal Welfare Act and the European Council Directive 86/609/EE. The test system was arranged according to the OECD 407 guideline for the testing of chemicals for repeated dose 28-day oral toxicity study in rodents.\n(§3) In the morning of day 7, 14, and 28, blood was taken from the retroorbital venous plexus from fasted anaesthetized animals. From each animal, 1 ml of blood was collected with EDTA as anticoagulant. The samples were centrifuged for generation of plasma. All plasma samples were covered with a N2 atmosphere and then stored at −80° C. until analysis.\n(§4) For mass spectrometry-based metabolite profiling analyses plasma samples were extracted and a polar and a non-polar (lipid) fraction was obtained. For GC-MS analysis, the non-polar fraction was treated with methanol under acidic conditions to yield the fatty acid methyl esters. Both fractions were further derivatised with O-methyl-hydroxyamine hydrochloride and pyridine to convert Oxo-groups to O-methyloximes and subsequently with a silylating agent before analysis. In LC-MS analysis, both fractions were reconstituted in appropriate solvent mixtures. HPLC was performed by gradient elution on reversed phase separation columns. Mass spectrometric detection which allows target and high sensitivity MRM (Multiple Reaction Monitoring) profiling in parallel to a full screen analysis was applied as described in WO2003073464.\n(§5) Steroids and their metabolites were measured by online SPE-LC-MS (Solid phase extraction-LC-MS).\n(§6) Following comprehensive analytical validation steps, the data for each analyte were normalized against data from pool samples. These samples were run in parallel through the whole process to account for process variability. The significance of treatment group values specific for sex, treatment duration and metabolite was determined by comparing means of the treated groups to the means of the respective untreated control groups using WELCH-test and quantified with treatment ratios versus control and p-values."}, "rats [2]": {"test_system": "rats", "experiment": "Plasma metabolite profiling (GC-MS, LC-MS) in rats dosed once daily over 28 days, treatment ratios versus control", "procedure": "as §1, §2, §3, §4, §5, §6"}, "[3]": {"conditions": "female rats, day 28, high dose, Table 1a up-regulation"}, "[4]": {"conditions": "female rats, day 28, high dose, Table 1b down-regulation"}, "[5]": {"conditions": "male rats, day 28, high dose, Table 1c up-regulation"}, "[6]": {"conditions": "male rats, day 28, high dose, Table 1d down-regulation"}}, "note": "Read-outs that look alike come from different tables or passages of the source. Marks after values point to notes of the source that are not given here.", "data": [{"molecule": "O=C([O-])[O-].[Ca+2]", "note": "[Calcium carbonate]", "values": [{"measurement": "3-Hydroxybutyrate, plasma, ratio versus control", "setting": "rats [1]", "value": "1.09*"}, {"measurement": "4-Hydroxyphenylpyruvate, plasma, ratio versus control", "setting": "rats [1]", "value": "0.23*"}, {"measurement": "5-Oxoproline, plasma, ratio versus control", "setting": "rats [1]", "value": "0.87*"}, {"measurement": "16-Methylheptadecanoic acid, plasma, ratio versus control", "setting": "rats [1]", "value": "0.66*"}, {"measurement": "17-Methyloctadecanoic acid, plasma, ratio versus control", "setting": "rats [1]", "value": "0.92*"}, {"measurement": "Alanine, plasma, ratio versus control", "setting": "rats [1]", "value": "0.79*"}, {"measurement": "Coenzyme Q9, plasma, ratio versus control", "setting": "rats [1]", "value": "0.72*"}, {"measurement": "Creatine, plasma, ratio versus control", "setting": "rats [1]", "value": "0.48*"}, {"measurement": "Creatinine, plasma, ratio versus control", "setting": "rats [1]", "value": "0.43*"}, {"measurement": "DAG (C18:1, C18:2), plasma, ratio versus control", "setting": "rats [1]", "value": "0.87*"}, {"measurement": "Eicosaenoic acid (C20:1) No 02, plasma, ratio versus control", "setting": "rats [1]", "value": "1.3*"}, {"measurement": "Glucose, plasma, ratio versus control", "setting": "rats [1]", "value": "0.93*"}, {"measurement": "Glycerol, lipid fraction, plasma, ratio versus control", "setting": "rats [1]", "value": "0.66*"}, {"measurement": "Heptadecanoic acid (C17:0), plasma, ratio versus control", "setting": "rats [1]", "value": "0.76*"}, {"measurement": "Hippuric acid, plasma, ratio versus control", "setting": "rats [1]", "value": "0.71*"}, {"measurement": "Lactate, plasma, ratio versus control", "setting": "rats [1]", "value": "0.95*"}, {"measurement": "Linoleic acid (C18:cis[9, 12]2), plasma, ratio versus control", "setting": "rats [1]", "value": "0.67*"}, {"measurement": "Linolenic acid (C18:cis[9, 12, 15]3), plasma, ratio versus control", "setting": "rats [1]", "value": "0.81*"}, {"measurement": "Lysophosphatidylcholine (C17:0), plasma, ratio versus control", "setting": "rats [1]", "value": "0.82*"}, {"measurement": "Malate, plasma, ratio versus control", "setting": "rats [1]", "value": "0.54*"}, {"measurement": "Phenylalanine, plasma, ratio versus control", "setting": "rats [1]", "value": "0.93*"}, {"measurement": "Phosphatidylcholine (C16:0, C16:0), plasma, ratio versus control", "setting": "rats [1]", "value": "1.06*"}, {"measurement": "Phosphatidylcholine (C18:0, C20:4), plasma, ratio versus control", "setting": "rats [1]", "value": "1.02*"}, {"measurement": "Pyruvate, plasma, ratio versus control", "setting": "rats [1]", "value": "0.77*"}, {"measurement": "Sphingomyelin (d18:2, C16:0), plasma, ratio versus control", "setting": "rats [1]", "value": "1.11*"}, {"measurement": "TAG (C18:1, C18:2), plasma, ratio versus control", "setting": "rats [1]", "value": "0.75*"}, {"measurement": "TAG (C18:2, C18:2), plasma, ratio versus control", "setting": "rats [1]", "value": "0.74*"}, {"measurement": "TAG (C18:2, C18:3), plasma, ratio versus control", "setting": "rats [1]", "value": "0.64*"}, {"measurement": "TAG (DAG-Fragment), plasma, ratio versus control", "setting": "rats [1]", "value": "0.72*"}, {"measurement": "TAG No 01, plasma, ratio versus control", "setting": "rats [1]", "value": "0.55*"}, {"measurement": "TAG No 05, plasma, ratio versus control", "setting": "rats [1]", "value": "0.71*"}, {"measurement": "TAG No 07, plasma, ratio versus control", "setting": "rats [1]", "value": "0.71*"}, {"measurement": "TAG No 059, plasma, ratio versus control", "setting": "rats [1]", "value": "0.68*"}, {"measurement": "Threonic acid, plasma, ratio versus control", "setting": "rats [1]", "value": "0.86*"}, {"measurement": "Urea, plasma, ratio versus control", "setting": "rats [1]", "value": "1.15*"}, {"measurement": "gamma-Linolenic acid (C18:cis[6, 9, 12]3), plasma, ratio versus control", "setting": "rats [1]", "value": "0.7*"}]}, {"molecule": "[O-][Cl+3]([O-])([O-])O", "note": "[Sodium perchlorate]", "values": [{"measurement": "Isoleucine, plasma, ratio versus control", "setting": "rats [2]; male rats, day 7, high dose, Table 2a up-regulation", "value": 0.97}, {"measurement": "Isoleucine, plasma, ratio versus control", "setting": "rats [2]; male rats, day 28, high dose, Table 2a up-regulation", "value": "1.37 *"}, {"measurement": "Isoleucine, plasma, ratio versus control", "setting": "rats [2]; male rats, day 28, high dose, Table 2c up-regulation", "value": "1.37*"}]}, {"molecule": "Calcitonin (Salmon)", "values": [{"measurement": "3-Hydroxybutyrate, plasma, ratio versus control", "setting": "rats [2]; [3]", "value": "1.32*"}, {"measurement": "Coenzyme Q10, plasma, ratio versus control", "setting": "rats [2]; [3]", "value": "1.03*"}, {"measurement": "Eicosaenoic acid (C20:1) No 02, plasma, ratio versus control", "setting": "rats [2]; [3]", "value": "3.35*"}, {"measurement": "Phosphate (inorganic and organic phosphates), plasma, ratio versus control", "setting": "rats [2]; [3]", "value": "1.31*"}, {"measurement": "Phosphatidylcholine (C18:0, C20:4), plasma, ratio versus control", "setting": "rats [2]; [3]", "value": "1.05*"}, {"measurement": "Sphingomyelin (d18:2, C16:0), plasma, ratio versus control", "setting": "rats [2]; [3]", "value": "1.11*"}, {"measurement": "Urea, plasma, ratio versus control", "setting": "rats [2]; [3]", "value": "1.36*"}, {"measurement": "myo-Inositol-2-phosphate, plasma, ratio versus control", "setting": "rats [2]; [3]", "value": "1.27*"}, {"measurement": "4-Hydroxyphenylpyruvate, plasma, ratio versus control", "setting": "rats [2]; [4]", "value": "0.63*"}, {"measurement": "18-Hydroxy-11-deoxycorticosterone, plasma, ratio versus control", "setting": "rats [2]; [4]", "value": "0.85*"}, {"measurement": "Alanine, plasma, ratio versus control", "setting": "rats [2]; [4]", "value": "0.75*"}, {"measurement": "Creatine, plasma, ratio versus control", "setting": "rats [2]; [4]", "value": "0.92*"}, {"measurement": "Creatinine, plasma, ratio versus control", "setting": "rats [2]; [4]", "value": "0.58*"}, {"measurement": "Glucose, plasma, ratio versus control", "setting": "rats [2]; [4]", "value": "0.95*"}, {"measurement": "Lysophosphatidylcholine (C17:0), plasma, ratio versus control", "setting": "rats [2]; [4]", "value": "0.91*"}, {"measurement": "Methionine, plasma, ratio versus control", "setting": "rats [2]; [4]", "value": "0.85*"}, {"measurement": "Phenylalanine, plasma, ratio versus control", "setting": "rats [2]; [4]", "value": "0.88*"}, {"measurement": "Threonic acid, plasma, ratio versus control", "setting": "rats [2]; [4]", "value": "0.75*"}, {"measurement": "Glycine, plasma, ratio versus control", "setting": "rats [2]; [5]", "value": 0.86}, {"measurement": "Phosphate (inorganic and organic phosphates), plasma, ratio versus control", "setting": "rats [2]; [5]", "value": "1.35*"}, {"measurement": "Phosphatidylcholine (C16:0, C16:0), plasma, ratio versus control", "setting": "rats [2]; [5]", "value": "1.24*"}, {"measurement": "myo-Inositol-2-phosphate, plasma, ratio versus control", "setting": "rats [2]; [5]", "value": "1.41*"}, {"measurement": "5-Oxoproline, plasma, ratio versus control", "setting": "rats [2]; [6]", "value": "0.94*"}, {"measurement": "16-Methylheptadecanoic acid, plasma, ratio versus control", "setting": "rats [2]; [6]", "value": "0.59*"}, {"measurement": "17-Methyloctadecanoic acid, plasma, ratio versus control", "setting": "rats [2]; [6]", "value": "0.65*"}, {"measurement": "18-Hydroxy-11-deoxycorticosterone, plasma, ratio versus control", "setting": "rats [2]; [6]", "value": "0.24*"}, {"measurement": "Alanine, plasma, ratio versus control", "setting": "rats [2]; [6]", "value": "0.78*"}, {"measurement": "Coenzyme Q9, plasma, ratio versus control", "setting": "rats [2]; [6]", "value": "0.83*"}, {"measurement": "Coenzyme Q10, plasma, ratio versus control", "setting": "rats [2]; [6]", "value": "0.74*"}, {"measurement": "DAG (C18:1, C18:2), plasma, ratio versus control", "setting": "rats [2]; [6]", "value": "0.63*"}, {"measurement": "Glycerol, lipid fraction, plasma, ratio versus control", "setting": "rats [2]; [6]", "value": "0.86*"}, {"measurement": "Glycine, plasma, ratio versus control", "setting": "rats [2]; [6]", "value": "0.86*"}, {"measurement": "Heptadecanoic acid (C17:0), plasma, ratio versus control", "setting": "rats [2]; [6]", "value": "0.77*"}, {"measurement": "Hippuric acid, plasma, ratio versus control", "setting": "rats [2]; [6]", "value": "0.48*"}, {"measurement": "Lactate, plasma, ratio versus control", "setting": "rats [2]; [6]", "value": "0.7*"}, {"measurement": "Linoleic acid (C18:cis[9, 12]2), plasma, ratio versus control", "setting": "rats [2]; [6]", "value": "0.82*"}, {"measurement": "Linolenic acid (C18:cis[9, 12, 15]3), plasma, ratio versus control", "setting": "rats [2]; [6]", "value": "0.61*"}, {"measurement": "Malate, plasma, ratio versus control", "setting": "rats [2]; [6]", "value": "0.8*"}, {"measurement": "Methionine, plasma, ratio versus control", "setting": "rats [2]; [6]", "value": "0.88*"}, {"measurement": "Pyruvate, plasma, ratio versus control", "setting": "rats [2]; [6]", "value": "0.76*"}, {"measurement": "TAG (C18:1, C18:2), plasma, ratio versus control", "setting": "rats [2]; [6]", "value": "0.7*"}, {"measurement": "TAG (C18:2, C18:2), plasma, ratio versus control", "setting": "rats [2]; [6]", "value": "0.6*"}, {"measurement": "TAG (C18:2, C18:3), plasma, ratio versus control", "setting": "rats [2]; [6]", "value": "0.78*"}, {"measurement": "TAG (DAG-Fragment), plasma, ratio versus control", "setting": "rats [2]; [6]", "value": "0.7*"}, {"measurement": "TAG No 01, plasma, ratio versus control", "setting": "rats [2]; [6]", "value": "0.66*"}, {"measurement": "TAG No 05, plasma, ratio versus control", "setting": "rats [2]; [6]", "value": "0.68*"}, {"measurement": "TAG No 07, plasma, ratio versus control", "setting": "rats [2]; [6]", "value": "0.78*"}, {"measurement": "TAG No 059, plasma, ratio versus control", "setting": "rats [2]; [6]", "value": "0.65*"}, {"measurement": "gamma-Linolenic acid (C18:cis[6, 9, 12]3), plasma, ratio versus control", "setting": "rats [2]; [6]", "value": 0.98}]}]}
